# Test system: not given
# Test: not given
# Format: physicochemical
# Conditions: not given
# Procedure: Step 7: Compound (3-6) (80 mg, 0.167 mmol) and 4,6,7-trifluoro-1H-indole-2-carboxylic acid (36.0 mg, 0.167 mmol) were dissolved in CH2Cl2 (1.393 ml) and DMF (0.279 ml) at 0° C. 4-methylmorpholine (55.1 μl, 0.501 mmol) and HATU (66.7 mg, 0.176 mmol) were added. The mixture was stirred at 0° C. for 3 h, diluted with DCM, and washed with 5% NaHCO3. The organic layer was washed with brine, dried over Na2SO4, and concentrated in vacuo. The crude was purified by chromatography on silica gel (ISCO 4 g) using ethyl acetate/cyclohexane (0-60%) to give a product as a light yellow oil (3-7) (60 mg, 53%). LC-MS, ES−: 674.2 [M-1]. Step 8: To a solution of (3-7) (60 mg, 0.089 mmol) in DCM (2 ml) at 0° C. was added Dess-Martin periodinane (56.5 mg, 0.133 mmol). The mixture was stirred at 0° C. for 3 h, quenched with 10% Na2S2O3, stirred for another 15 min, and extracted with DCM. The combined organic layers were washed with 10% Na2S2O3, Sat. NaHCO3, brine, dried over Na2SO4, and concentrated.
row,Compound,stability in solution
1,CC(C)C[C@@H](C(=O)N1C[C@]2(C[C@H]1C(=O)c1nc3ccccc3s1)C(=O)Nc1ccccc12)N(C)C(=O)c1cc2c(F)cc(F)c(F)c2[nH]1 [Example 3],not stable in solution

# Target: SARS-CoV-2 3CL-protease (Severe acute respiratory syndrome coronavirus 2, UniProt P0DTD1)
# Test: SARS-CoV-2 3C-like (3CL) protease fluorescence assay (FRET)
# Format: biochemical
# Conditions: recombinant SARS-CoV-2 3CL-protease 10 nM, 30 min preincubation at RT, substrate 40 μM, run in duplicate
row,Compound,IC50 [µM]
1,CC(C)C[C@@H](C(=O)N1C[C@]2(C[C@H]1C(=O)c1nc3ccccc3s1)C(=O)Nc1ccccc12)N(C)C(=O)c1cc2c(F)cc(F)cc2[nH]1 [Example 1],< 1
2,CC(C)C[C@@H](C(=O)N1C[C@]2(C[C@@H]1C(=O)c1nc3ccccc3s1)C(=O)Nc1ccccc12)N(C)C(=O)c1cc2c(F)cc(F)cc2[nH]1 [Example 2],> 10
3,CC(C)C[C@@H](C(=O)N1C[C@]2(C[C@H]1C(=O)c1nc3ccccc3s1)C(=O)Nc1ccccc12)N(C)C(=O)c1cc2c(F)cc(F)c(F)c2[nH]1 [Example 3],> 10
4,CC(C)C[C@@H](C(=O)N1C[C@]2(C[C@@H]1C(=O)c1nc3ccccc3s1)C(=O)Nc1ccccc12)N(C)C(=O)c1cc2c(F)cc(F)c(F)c2[nH]1 [Example 4],> 10
5,CC(C)C[C@@H](C(=O)N1C[C@]2(C[C@H]1C(=O)c1nc3ccccc3s1)C(=O)Nc1ccccc12)N(C)C(=O)OCc1ccccc1 [Example 5],> 10
6,CC(C)C[C@@H](C(=O)N1C[C@]2(C[C@H]1C(=O)c1nc3ccccc3s1)C(=O)Nc1ccccc12)N(C)C(=O)[C@H](C)NC(=O)OCc1ccccc1 [Example 6],< 1

# Reference: US11919910B2, “Spiropyrrolidine derived antiviral agents” (ENANTA PHARMACEUTICALS, INC., priority 2021, dated 2024)
